Entries after “also recorded” stand apart in the source; their conditions may differ.

The test system of this assay is Cln3^Δex7/8 mice. Put plainly: Astroglial activation (GFAP) in brain of Cln3^Δex7/8 mice. The assay is classed as in vivo, mouse. As to the method: FIG. 22(A-B). Short-term chronic treatment with semaglutide impacts glial activation in Cln3^Δex7/8 mice. Beginning at wean, wild type and Cln3^Δex7/8 mice were treated with vehicle or semaglutide 2.571 μg/mouse, 25.71 μg/mouse) through subcutaneous injections three times a week until sacrifice at 16 weeks. Upon sacrifice, a hemisphere of the brain was sectioned at 50 microns on a vibratome; DAB staining immunohistochemistry was then performed using anti-GFAP (Dako, Z0334; 1:5000), anti-CD68 (AbD Serotec, MCA1957; 1:2000), anti-rabbit biotinylated (Vector Labs, BA-1000 1:1000), and anti-rat (Vector Labs, BA-9400 1:1000). Sections were imaged and analyzed using an Aperio Digital Pathology Slide Scanner (AT2) and associated software. Images were extracted from S1BF of the somatosensory cortex, the CA3 of the hippocampus, and the VPM/VPL of the thalamus, key brain regions for Batten disease pathology. Percent area of immunoreactivity were quantified using a threshold analysis in ImageJ™. Statistical analyses were performed using GraphPad Prism™ (v8.4.3; San Diego, CA). […] Increasing concentrations of semaglutide and corresponding genotypes are shown along the x-axis. Nested one-way ANOVA. Mean±S.E.M. Sidak's multiple comparisons test. Compared to the wild type vehicle treated group #p<0.05, ##p<0.01, ###p<0.001, ####p<0.0001. Compared to mutant vehicle treated group *p<0.05, **p<0.01, ***p<0.001, ****p<0.0001.
Specific experimental details are included in figure legends. In general, after collection and preparation, MEFs and PNCs were dosed with vehicle or AF38469 (40 nM, 400 nM. or 4 μM) on DIV3 and DIV5. On DIV7, cells were treated with the following dyes: Hoechst 33342 (1:1000 dilution), LysoTrackerT™ Red DND-99 (1:10,000 dilution), fixed, and imaged. Mice were given vehicle or AF38469 (78.125 μg/ml, 3.125 μg/ml, 0.3125 μg/ml or 0.03125 μg/ml equating approximately to 250 μg/mouse/day, 10 μg/mouse/day, 1 μg/mouse/day, and […], respectively, given a mouse's daily water intake of approximately 3.2 ml per day) in drinking water beginning at wean. Body weight was measured bi-weekly, and a force actimeter test was performed on Cln2^R207X mice at 10 weeks of age. Body weight was measured every month for Cln3^Δex7/8 mice. At 11 and 16 weeks of age, respectively, Cln2^R207X and Cln3^Δex7/8 mice along with age matched wild type control mice were CO2 euthanized and intracardially perfused with PBS. Brains were collected and placed on a 1 mm sagittal brain block. Brains were sliced at the midline and 3 mm right of the midline. One hemisphere was fixed in 4% PFA and sectioned at 50 microns on a vibratome. Immunohistochemistry was performed on free-floating sections. For mitochondrial ATP synthase subunit C (SubC), glial fibrillary acidic protein (GFAP), and cluster of differentiation 68 (CD68) immunolabeling, primary antibodies included anti-SubC (Abcam, ab181243; 1:1000), anti-GFAP (Dako, Z0334; 1:5000), anti-CD68 (AbD Serotec, MCA1957; 1:2000), and secondary antibodies included anti-rabbit biotinylated (Vector Labs, BA-1000 1:1000) and anti-rat (Vector Labs, BA-9400 1:1000). Coverslips were mounted on slides using antifade-mounting media and were stored in the dark before imaging. Sections were imaged and analyzed using an Aperio Digital Pathology Slide Scanner (AT2) and associated software. Images were extracted from S1BF of the somatosensory cortex and the VPM/VPL of the thalamus, with multiple images taken of multiple tissues from each animal.
Short-term chronic treatment with AF38469 impacts glial activation in Cln3^Δex7/8 mice. Beginning at wean, wild type and Cln3^Δex7/8 mice were treated with vehicle (0.2408% DMSO) or AF38469 (0.03125 μg/ml, 0.3125 μg/ml, 3.125 μg/ml, 78.125 μg/ml) continuously through the drinking water continuing until sacrifice at 16 weeks. […]

In the case of semaglutide, the “astrocytosis (GFAP)” value (semaglutide 2.571 μg/mouse, 25.71 μg/mouse s.c., S1BF, CA3, VPM/VPL) was “had no significant effect”.

As for `CC[C@H](C)[C@H](N)C(=O)NCCN1CCOCC1` [LM11A-31, N-[2-(morpholin-4-yl)ethyl]-L-isoleucinamide], the “astroglial activation (GFAP)” value (LM11A-31 0.6 mg/mL, VPM/VPL of the thalamus and somatosensory cortex) is listed as “decreasing trend; also recorded: trends towards decreased levels; also recorded: had no significant decrease”.

As for `Cc1cccc(NC(=O)c2ccc(C(F)(F)F)cc2C(=O)O)n1` [AF38469, 2-((6-methylpyridin-2-yl)carbamoyl)-5-(trifluoromethyl)benzoic acid], the “astroglial activation (GFAP)” value was “significantly and potently decreased” (0.03125 μg/ml, 0.3125 μg/ml, VPM/VPL of the thalamus); “significantly decreased” (0.03125 μg/ml, somatosensory cortex); “increased or had no impact; also recorded: had no impact” (AF38469 higher doses 3.125 μg/ml, 78.125 μg/ml, VPM/VPL of the thalamus and somatosensory cortex). Further, under “lower doses, somatosensory cortex and the thalamus, summary statement”, the GFAP reactivity result is listed as “significantly decreased”.

The record behind these values is patent US20240197700A1, “Methods and Compositions for Treating Lysosomal Storage Disorders” (Sanford Health, priority 2021, published 2024).
